Measured values from ChEMBL document CHEMBL3994622, “Design and synthesis of new RAF kinase-inhibiting antiproliferative quinoline derivatives. Part 2: Diarylurea derivatives” (Eur J Med Chem, 2017).

Experiments:
Assay type in all cases: functional
[1] = tested on: HOP-62; test: Growth inhibition of human HOP62 cells assessed as cell growth at 30 uM incubated for 48 hrs by sulforhodamine B assay relative to control; conditions: HOP-62, 48 h, read-out: Activity
[2] = tested on: EKVX; test: Growth inhibition of human EKVX cells assessed as cell growth at 0.3 uM incubated for 48 hrs by sulforhodamine B assay relative to control; conditions: read-out: Activity
[3] = tested on: UACC-257; test: Growth inhibition of human UACC257 cells assessed as cell growth at 0.005 uM incubated for 48 hrs by sulforhodamine B assay relative to control; conditions: UACC-257, 48 h, read-out: Activity
[4] = tested on: SW-620; test: Growth inhibition of human SW620 cells assessed as cell growth at 0.5 uM incubated for 48 hrs by sulforhodamine B assay relative to control; conditions: SW-620, 48 h, read-out: Activity
[5] = tested on: MOLT-4; test: Growth inhibition of human MOLT4 cells assessed as cell growth at 0.005 uM incubated for 48 hrs by sulforhodamine B assay relative to control; conditions: MOLT-4, 48 h, read-out: Activity
[6] = tested on: NCI-H460; test: Growth inhibition of human NCI-H460 cells assessed as cell growth at 5 uM incubated for 48 hrs by sulforhodamine B assay relative to control; conditions: NCI-H460, 48 h, read-out: Activity
[7] = tested on: RPMI-8226; test: Growth inhibition of human RPMI8226 cells assessed as cell growth at 50 uM incubated for 48 hrs by sulforhodamine B assay relative to control; conditions: RPMI-8226, 48 h, read-out: Activity
[8] = tested on: HOP-92; test: Growth inhibition of human HOP92 cells assessed as cell growth at 5 uM incubated for 48 hrs by sulforhodamine B assay relative to control; conditions: HOP-92, 48 h, read-out: Activity
[9] = tested on: HOP-62; test: Growth inhibition of human HOP62 cells assessed as cell growth at 50 uM incubated for 48 hrs by sulforhodamine B assay relative to control; conditions: HOP-62, 48 h, read-out: Activity
[10] = tested on: NCI-H23; test: Growth inhibition of human NCI-H23 cells assessed as cell growth at 0.5 uM incubated for 48 hrs by sulforhodamine B assay relative to control; conditions: NCI-H23, 48 h, read-out: Activity
[11] = tested on: SR; test: Growth inhibition of human SR cells assessed as cell growth at 0.05 uM incubated for 48 hrs by sulforhodamine B assay relative to control; conditions: read-out: Activity
[12] = tested on: K562; test: Growth inhibition of human K562 cells assessed as cell growth at 0.5 uM incubated for 48 hrs by sulforhodamine B assay relative to control; conditions: K562, 48 h, read-out: Activity
[13] = tested on: Malme-3M; test: Growth inhibition of human MALME-3M cells assessed as cell growth at 0.005 uM incubated for 48 hrs by sulforhodamine B assay relative to control; conditions: read-out: Activity
[14] = tested on: NCI-H226; test: Growth inhibition of human NCI-H226 cells assessed as cell growth at 0.005 uM incubated for 48 hrs by sulforhodamine B assay relative to control; conditions: NCI-H226, 48 h, read-out: Activity
[15] = tested on: LOX IMVI; test: Growth inhibition of human LOXIMVI cells assessed as cell growth at 5 uM incubated for 48 hrs by sulforhodamine B assay relative to control; conditions: read-out: Activity
[16] = tested on: SN12C; test: Growth inhibition of human SN12C cells assessed as cell growth at 0.005 uM incubated for 48 hrs by sulforhodamine B assay relative to control; conditions: read-out: Activity
[17] = tested on: OVCAR-5; test: Growth inhibition of human OVCAR5 cells assessed as cell growth at 0.005 uM incubated for 48 hrs by sulforhodamine B assay relative to control; conditions: OVCAR-5, 48 h, read-out: Activity
[18] = tested on: SN12C; test: Growth inhibition of human SN12C cells assessed as cell growth at 0.5 uM incubated for 48 hrs by sulforhodamine B assay relative to control; conditions: read-out: Activity
[19] = tested on: IGROV-1; test: Growth inhibition of human IGROV1 cells assessed as cell growth at 0.05 uM incubated for 48 hrs by sulforhodamine B assay relative to control; conditions: IGROV-1, 48 h, read-out: Activity
[20] = tested on: HCT-116; test: Growth inhibition of human HCT116 cells assessed as cell growth at 0.005 uM incubated for 48 hrs by sulforhodamine B assay relative to control; conditions: HCT-116, 48 h, read-out: Activity
[21] = tested on: T47D; test: Growth inhibition of human T47D cells assessed as cell growth at 5 uM incubated for 48 hrs by sulforhodamine B assay relative to control; conditions: read-out: Activity
[22] = tested on: SW-620; test: Growth inhibition of human SW620 cells assessed as cell growth at 0.005 uM incubated for 48 hrs by sulforhodamine B assay relative to control; conditions: SW-620, 48 h, read-out: Activity
[23] = tested on: UO-31; test: Growth inhibition of human UO31 cells assessed as cell growth at 50 uM incubated for 48 hrs by sulforhodamine B assay relative to control; conditions: UO-31, 48 h, read-out: Activity
[24] = tested on: KM12; test: Growth inhibition of human KM12 cells assessed as cell growth at 0.5 uM incubated for 48 hrs by sulforhodamine B assay relative to control; conditions: KM12, 48 h, read-out: Activity
[25] = tested on: NCI/ADR-RES; test: Growth inhibition of human NCI/ADR-RES cells assessed as cell growth at 5 uM incubated for 48 hrs by sulforhodamine B assay relative to control; conditions: read-out: Activity
[26] = tested on: PC-3; test: Growth inhibition of human PC3 cells assessed as cell growth at 0.5 uM incubated for 48 hrs by sulforhodamine B assay relative to control; conditions: PC-3, 48 h, read-out: Activity
[27] = tested on: SK-MEL-2; test: Growth inhibition of human SK-MEL-2 cells assessed as cell growth at 0.05 uM incubated for 48 hrs by sulforhodamine B assay relative to control; conditions: SK-MEL-2, 48 h, read-out: Activity
[28] = tested on: HT-29; test: Growth inhibition of human HT-29 cells assessed as cell growth at 0.5 uM incubated for 48 hrs by sulforhodamine B assay relative to control; conditions: HT-29, 48 h, read-out: Activity
[29] = tested on: NCI-H23; test: Growth inhibition of human NCI-H23 cells assessed as cell growth at 5 uM incubated for 48 hrs by sulforhodamine B assay relative to control; conditions: NCI-H23, 48 h, read-out: Activity
[30] = tested on: SR; test: Growth inhibition of human SR cells assessed as cell growth at 0.5 uM incubated for 48 hrs by sulforhodamine B assay relative to control; conditions: read-out: Activity
[31] = tested on: A549; test: Growth inhibition of human A549/ATCC cells assessed as cell growth at 5 uM incubated for 48 hrs by sulforhodamine B assay relative to control; conditions: A549, 48 h, read-out: Activity
[32] = tested on: DU-145; test: Growth inhibition of human DU145 cells assessed as cell growth at 50 uM incubated for 48 hrs by sulforhodamine B assay relative to control; conditions: DU-145, 48 h, read-out: Activity
[33] = tested on: UO-31; test: Growth inhibition of human UO31 cells assessed as cell growth at 0.05 uM incubated for 48 hrs by sulforhodamine B assay relative to control; conditions: UO-31, 48 h, read-out: Activity
[34] = tested on: 786-0; test: Growth inhibition of human 786-0 cells assessed as cell growth at 0.05 uM incubated for 48 hrs by sulforhodamine B assay relative to control; conditions: 786-0, 48 h, read-out: Activity
[35] = tested on: M14; test: Growth inhibition of human M14 cells assessed as cell growth at 5 uM incubated for 48 hrs by sulforhodamine B assay relative to control; conditions: M14, 48 h, read-out: Activity

Compound `COc1cc2cc(Oc3ccc(NC(=O)Nc4ccc(Cl)c(C(F)(F)F)c4)cc3)c(C)nc2cc1OC` has a growth at 30 µM [1] of -96% and a growth at 0.3 µM [2] of 94%.
`COc1cc2cc(Oc3ccc(NC(=O)Nc4cccc(C(F)(F)F)c4)cc3)c(C)nc2cc1OC` was tested, and the growth at 0.005 µM [3] was 95%, the growth at 0.5 µM [4] was 108% and the growth at 0.005 µM [5] was 97%. For the same compound, the growth at 5 µM [6] was 5%, the growth at 50 µM [7] was -47% and the growth at 5 µM [8] was -10%. For the same compound, the growth at 50 µM [9] was -85%, the growth at 0.5 µM [10] was 97% and the growth at 0.05 µM [11] was 93%. The growth at 0.5 µM [12] was 93%, the growth at 0.005 µM [13] was 94% and the growth at 0.005 µM [14] was 96%. The growth at 5 µM [15] was 14%, the growth at 0.005 µM [16] was 95% and the growth at 0.005 µM [17] was 103%. It also gave a growth at 0.5 µM [18] of 95%, a growth at 0.05 µM [19] of 108% and a growth at 0.005 µM [20] of 100%. The growth at 5 µM [21] was 7%, the growth at 0.005 µM [22] was 99% and the growth at 50 µM [23] was -24%. It also gave a growth at 0.5 µM [24] of 88%, a growth at 5 µM [25] of 11% and a growth at 0.5 µM [26] of 88%. The growth at 0.05 µM [27] was 104%, the growth at 0.5 µM [28] was 112% and the growth at 5 µM [29] was 9%. It also gave a growth at 0.5 µM [30] of 91%, a growth at 5 µM [31] of 9% and a growth at 50 µM [32] of -32%. The growth at 0.05 µM [33] was 91%, the growth at 0.05 µM [34] was 82% and the growth at 5 µM [35] was 14%.
